# Laboratory results taken from patent US20260285802A1, “MODULATORS OF SORTILIN ACTIVITY” (priority 2023, published 2026).
# Target: T1, Human (6-His) Sortilin (Homo sapiens, UniProt Q99523)
# T1 sequence (Q99523 78-831): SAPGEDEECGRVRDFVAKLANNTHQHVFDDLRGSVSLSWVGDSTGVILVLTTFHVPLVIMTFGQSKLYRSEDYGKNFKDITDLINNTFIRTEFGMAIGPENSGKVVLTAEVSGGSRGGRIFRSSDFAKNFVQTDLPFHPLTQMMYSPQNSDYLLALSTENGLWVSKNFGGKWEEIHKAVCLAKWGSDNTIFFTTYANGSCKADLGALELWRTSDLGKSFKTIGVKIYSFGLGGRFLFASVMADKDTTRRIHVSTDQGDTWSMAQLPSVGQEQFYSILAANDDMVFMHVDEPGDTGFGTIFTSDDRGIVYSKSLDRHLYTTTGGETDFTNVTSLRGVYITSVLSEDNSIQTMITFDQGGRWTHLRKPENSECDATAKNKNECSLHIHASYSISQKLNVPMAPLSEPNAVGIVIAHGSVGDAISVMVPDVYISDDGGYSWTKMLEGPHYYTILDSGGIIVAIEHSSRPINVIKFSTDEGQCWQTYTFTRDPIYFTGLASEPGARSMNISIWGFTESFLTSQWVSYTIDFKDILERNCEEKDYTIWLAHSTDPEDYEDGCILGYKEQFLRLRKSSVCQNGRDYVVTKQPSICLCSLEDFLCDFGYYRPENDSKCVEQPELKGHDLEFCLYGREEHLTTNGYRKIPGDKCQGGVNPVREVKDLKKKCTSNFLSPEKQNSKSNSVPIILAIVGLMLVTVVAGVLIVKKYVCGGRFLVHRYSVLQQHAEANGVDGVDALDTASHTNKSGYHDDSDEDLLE
# Test: biochemical
row,Kd [nM],SMILES
1,2840,"CC(C)(C)CCC(Nc1ccccc1)c1nnn[nH]1 (racemic) [Example 39, N-phenyl[4,4-dimethyl-1-(2H-tetraazol-5-yl)pentyl]amine]"
2,111000,"CC(C)CC(Nc1ccccc1)c1nnn[nH]1 (racemic) [Example 67, [3-methyl-1-(2H-tetraazol-5-yl)butyl]aniline]"
3,91.3,"COc1ccc2c(NC(CCC(C)(C)C)c3nnn[nH]3)ncnc2c1 (racemic) [Example 85, [4,4-dimethyl-1-(2H-tetraazol-5-yl)pentyl](7-methoxy-4-quinazolinyl)amine]"
4,351,"CC(C)(C)CCC(Nc1ncnc2cc(C(F)(F)F)ccc12)c1nnn[nH]1 (racemic) [Example 87, [4,4-dimethyl-1-(2H-tetraazol-5-yl)pentyl][7-(trifluoromethyl)-4-quinazolinyl]amine]"
5,85.7,"Cc1nc(NC(CCC(C)(C)C)c2nnn[nH]2)c2ccccc2n1 (racemic) [Example 89, [4,4-dimethyl-1-(2H-tetraazol-5-yl)pentyl](2-methyl-4-quinazolinyl)amine]"
6,18,"Cc1nc(N[C@@H](CCC(C)(C)C)C(=O)O)c2ccccc2n1 [Example 118, (S)-5,5-Dimethyl-2-((2-methylquinazolin-4-yl)amino)hexanoic acid]"
7,14,"CC(C)(C)CC[C@H](Nc1nc(C2CC2)nc2ccccc12)C(=O)O [Example 119, (S)-2-((2-Cyclopropylquinazolin-4-yl)amino)-5,5-dimethylhexanoic acid]"

row,SMILES,Kd [nM]
1,"CC(C)CC(Nc1cccnc1)c1nnn[nH]1 (racemic) [Example 63, [3-methyl-1-(2H-tetraazol-5-yl)butyl]-3-pyridylamine]",47300
